Molecular target: T1, Neuraminidase (Influenza A virus, UniProt B4URF0)
Test: Inhibition of Influenza A virus H1N1 neuraminidase
Settings: not given

Q: With `COc1cc(O)ccc1C(=O)/C=C/c1ccc(O)cc1` as the compound, how does the IC50 read?
A: 24.3 µM

Molecular target: T1, Neuraminidase
Test: Inhibition of Influenza A virus (A/chicken/Sandong/Li/2008(H9N2)) neuraminidase N2 using 4-MU-NANA as substrate after 5 mins by fluorescence assay
Settings: not given

Q: With `CCC(CC)C(=O)N[C@@H](CCCNC(=O)/C=C/c1ccc(O)c(O)c1)C(=O)O` as the compound, how does the IC50 read?
A: 44.2 µM

Q: Which IC50 does the source give for `CC(=O)Nc1cc(NC(=O)/C=C/c2ccc(O)c(O)c2)ccc1OCC(=O)O` here?
A: 15.4 µM

Q: For `CCC(CC)C(=O)Nc1cc(NC(=O)/C=C/c2ccc(O)c(O)c2)ccc1OCC(=O)O`, which IC50 is on record?
A: 7.2 µM

Q: With `CC(C)(C)OC(=O)N[C@@H](CCCNC(=O)/C=C/c1ccc(O)c(O)c1)C(=O)O` as the compound, how does the IC50 read?
A: 33.6 µM

Q: For `CC(C)C(=O)Nc1cc(NC(=O)/C=C/c2ccc(O)c(O)c2)ccc1OCC(=O)O`, which IC50 is on record?
A: 13 µM

Q: With `O=C(O)COc1ccc(NC(=O)/C=C/c2ccc(O)c(O)c2)cc1NC(=O)C1CC1` as the compound, how does the IC50 read?
A: 16.5 µM

Q: With `O=C(/C=C/c1ccc(O)c(O)c1)N[C@@H](Cc1c[nH]c2ccccc12)C(=O)O` as the compound, how does the IC50 read?
A: 27.2 µM

Q: With `O=C(/C=C/c1ccc(O)c(O)c1)N[C@@H](Cc1ccccc1)C(=O)O` as the compound, how does the IC50 read?
A: 39.6 µM

Q: Which IC50 does the source give for `CCC(=O)Nc1cc(NC(=O)/C=C/c2ccc(O)c(O)c2)ccc1O` here?
A: 23.6 µM

Q: For `CC(C)C(=O)N[C@@H](CCCNC(=O)/C=C/c1ccc(O)c(O)c1)C(=O)O`, which IC50 is on record?
A: 30.3 µM

Q: Which IC50 does the source give for `O=C(O)CCCNC(=O)/C=C/c1ccc(O)c(O)c1` here?
A: 16.8 µM

Q: Which IC50 does the source give for `O=C(O)CNC(=O)/C=C/c1ccc(O)c(O)c1` here?
A: 43.3 µM

Q: Which IC50 does the source give for `CC(=O)Nc1cc(NC(=O)/C=C/c2ccc(O)c(O)c2)ccc1O` here?
A: 27.4 µM

Q: Which IC50 does the source give for `CCC(=O)N[C@@H](CCCNC(=O)/C=C/c1ccc(O)c(O)c1)C(=O)O` here?
A: 37.9 µM

Q: With `O=C(O)CCNC(=O)/C=C/c1ccc(O)c(O)c1` as the compound, how does the IC50 read?
A: 13.5 µM

Q: With `CC(C)[C@H](NC(=O)/C=C/c1ccc(O)c(O)c1)C(=O)O` as the compound, how does the IC50 read?
A: 37.3 µM

Q: With `O=C(/C=C/c1ccc(O)c(O)c1)Nc1ccc(O)c(NC(=O)C2CC2)c1` as the compound, how does the IC50 read?
A: 24.7 µM

Q: Which IC50 does the source give for `CC(C)C(=O)Nc1cc(NC(=O)/C=C/c2ccc(O)c(O)c2)ccc1O` here?
A: 20.4 µM

Q: For `O=C(/C=C/c1ccc(O)c(O)c1)NCCC[C@H](NC(=O)Cc1ccccc1)C(=O)O`, which IC50 is on record?
A: 28.1 µM

Q: Which IC50 does the source give for `O=C(/C=C/c1ccc(O)c(O)c1)NCCC[C@H](NC(=O)c1ccccc1)C(=O)O` here?
A: 37.2 µM

Q: Which IC50 does the source give for `CCC(CC)C(=O)Nc1cc(NC(=O)/C=C/c2ccc(O)c(O)c2)ccc1O` here?
A: 20.7 µM

System: not listed separately
Test: Cytotoxicity against chicken embryo fibroblast after 2 days by MTS assay
Format: cell-based, Gallus gallus
Settings: chicken embryo fibroblasts

Q: For `CC(=O)Nc1cc(NC(=O)/C=C/c2ccc(O)c(O)c2)ccc1OCC(=O)O`, which CC50 at 48 h is on record?
A: 60.4 µM

Q: With `CCC(CC)C(=O)Nc1cc(NC(=O)/C=C/c2ccc(O)c(O)c2)ccc1OCC(=O)O` as the compound, how does the CC50 at 48 h read?
A: > 100 µM

Q: For `CC(C)C(=O)Nc1cc(NC(=O)/C=C/c2ccc(O)c(O)c2)ccc1OCC(=O)O`, which CC50 at 48 h is on record?
A: 94.3 µM

Q: For `O=C(O)COc1ccc(NC(=O)/C=C/c2ccc(O)c(O)c2)cc1NC(=O)C1CC1`, which CC50 at 48 h is on record?
A: 86.7 µM

Q: Which CC50 at 48 h does the source give for `O=C(/C=C/c1ccc(O)c(O)c1)N[C@@H](Cc1c[nH]c2ccccc12)C(=O)O` here?
A: 89.5 µM

Q: Which CC50 at 48 h does the source give for `CCC(=O)Nc1cc(NC(=O)/C=C/c2ccc(O)c(O)c2)ccc1O` here?
A: > 100 µM

Q: For `CC(C)C(=O)N[C@@H](CCCNC(=O)/C=C/c1ccc(O)c(O)c1)C(=O)O`, which CC50 at 48 h is on record?
A: 65 µM

Q: With `CCOC(=O)C1=C[C@@H](OC(CC)CC)[C@H](NC(C)=O)[C@@H](N)C1` [OSELTAMIVIR] as the compound, how does the CC50 at 48 h read?
A: > 10 µM

Q: For `CC(=O)Nc1cc(NC(=O)/C=C/c2ccc(O)c(O)c2)ccc1O`, which CC50 at 48 h is on record?
A: 78.2 µM

Q: With `O=C(O)CCNC(=O)/C=C/c1ccc(O)c(O)c1` as the compound, how does the CC50 at 48 h read?
A: > 100 µM

Q: With `O=C(/C=C/c1ccc(O)c(O)c1)NCCC[C@H](NC(=O)Cc1ccccc1)C(=O)O` as the compound, how does the CC50 at 48 h read?
A: 87.7 µM

Q: Which CC50 at 48 h does the source give for `CCC(CC)C(=O)Nc1cc(NC(=O)/C=C/c2ccc(O)c(O)c2)ccc1O` here?
A: > 100 µM

System: Influenza A virus
Test: Antiviral activity against Influenza A virus (A/chicken/Sandong/Li/2008(H9N2)) infected in chicken embryo fibroblast assessed as protection against virus-induced cytopathic effect after 2 days by MTS assay
Format: functional, organism-based
Settings: 48 h

Q: For `CCC(CC)C(=O)Nc1cc(NC(=O)/C=C/c2ccc(O)c(O)c2)ccc1OCC(=O)O`, which EC50 is on record?
A: 31.2 µM

Q: With `O=C(/C=C/c1ccc(O)c(O)c1)N[C@@H](Cc1c[nH]c2ccccc12)C(=O)O` as the compound, how does the EC50 read?
A: > 100 µM

Q: With `CCC(=O)Nc1cc(NC(=O)/C=C/c2ccc(O)c(O)c2)ccc1O` as the compound, how does the EC50 read?
A: 58.6 µM

Q: For `CCOC(=O)C1=C[C@@H](OC(CC)CC)[C@H](NC(C)=O)[C@@H](N)C1` [OSELTAMIVIR], which EC50 is on record?
A: 0.5 µM

Q: For `O=C(O)CCNC(=O)/C=C/c1ccc(O)c(O)c1`, which EC50 is on record?
A: > 100 µM

Q: Which EC50 does the source give for `CCC(CC)C(=O)Nc1cc(NC(=O)/C=C/c2ccc(O)c(O)c2)ccc1O` here?
A: 22.6 µM

Molecular target: Neuraminidase (Influenza A virus) (UniProt B4URF0)
Test: Inhibition of Influenza A virus H1N1 A/duck/China/QJ/01 neuraminidase N1 using 4-MU-NANA as substrate at 100 uM after 5 mins by fluorescence assay
Settings: not given

Q: Which inhibition does the source give for `CC(=O)Nc1cc(NC(=O)/C=C/c2ccccc2)ccc1O` here?
A: 40.2%

Q: Which inhibition does the source give for `CC(C)C(=O)Nc1cc(NC(=O)/C=C/c2ccccc2)ccc1O` here?
A: 47.2%

Q: Which inhibition does the source give for `O=C(/C=C/c1ccccc1)Nc1ccc(O)c(NC(=O)C2CC2)c1` here?
A: 42.6%

Q: With `CCC(=O)Nc1cc(NC(=O)/C=C/c2ccccc2)ccc1O` as the compound, how does the inhibition read?
A: 42.9%

Q: With `CCC(CC)C(=O)Nc1cc(NC(=O)/C=C/c2ccccc2)ccc1O` as the compound, how does the inhibition read?
A: 45.2%

Molecular target: T1, Neuraminidase
Test: Inhibition of Influenza A virus H9N2 neuraminidase
Settings: not given

Q: For `O=C(/C=C/c1ccc(O)cc1)CC(=O)/C=C/c1ccc(O)c(O)c1`, which IC50 is on record?
A: 64.1 µM

Q: Which IC50 does the source give for `O=C(/C=C/c1ccc(O)c(O)c1)CC(=O)/C=C/c1ccc(O)c(O)c1` here?
A: 63.8 µM

Molecular target: T1, Neuraminidase
Test: Inhibition of Influenza A virus H1N1 A/duck/China/QJ/01 neuraminidase N1 using 4-MU-NANA as substrate after 5 mins by fluorescence assay
Settings: not given

Q: For `CCC(CC)C(=O)N[C@@H](CCCNC(=O)/C=C/c1ccc(O)c(O)c1)C(=O)O`, which IC50 is on record?
A: 39.2 µM

Q: Which IC50 does the source give for `CC(=O)Nc1cc(NC(=O)/C=C/c2ccc(O)c(O)c2)ccc1OCC(=O)O` here?
A: 12.2 µM

Q: For `CCC(CC)C(=O)Nc1cc(NC(=O)/C=C/c2ccc(O)c(O)c2)ccc1OCC(=O)O`, which IC50 is on record?
A: 8.5 µM

Q: For `CC(C)(C)OC(=O)N[C@@H](CCCNC(=O)/C=C/c1ccc(O)c(O)c1)C(=O)O`, which IC50 is on record?
A: 34.7 µM

Q: With `CC(C)C(=O)Nc1cc(NC(=O)/C=C/c2ccc(O)c(O)c2)ccc1OCC(=O)O` as the compound, how does the IC50 read?
A: 11.6 µM

Q: Which IC50 does the source give for `O=C(O)COc1ccc(NC(=O)/C=C/c2ccc(O)c(O)c2)cc1NC(=O)C1CC1` here?
A: 13.8 µM

Q: Which IC50 does the source give for `O=C(/C=C/c1ccc(O)c(O)c1)N[C@@H](Cc1c[nH]c2ccccc12)C(=O)O` here?
A: 30.1 µM

Q: With `O=C(/C=C/c1ccc(O)c(O)c1)N[C@@H](Cc1ccccc1)C(=O)O` as the compound, how does the IC50 read?
A: 37.4 µM

Q: For `CCC(=O)Nc1cc(NC(=O)/C=C/c2ccc(O)c(O)c2)ccc1O`, which IC50 is on record?
A: 17.6 µM

Q: Which IC50 does the source give for `CC(C)C(=O)N[C@@H](CCCNC(=O)/C=C/c1ccc(O)c(O)c1)C(=O)O` here?
A: 31.9 µM

Q: Which IC50 does the source give for `O=C(O)CCCNC(=O)/C=C/c1ccc(O)c(O)c1` here?
A: 27.7 µM

Q: With `O=C(O)CNC(=O)/C=C/c1ccc(O)c(O)c1` as the compound, how does the IC50 read?
A: 49.5 µM

Q: For `CC(=O)Nc1cc(NC(=O)/C=C/c2ccc(O)c(O)c2)ccc1O`, which IC50 is on record?
A: 17.7 µM

Q: Which IC50 does the source give for `CCC(=O)N[C@@H](CCCNC(=O)/C=C/c1ccc(O)c(O)c1)C(=O)O` here?
A: 31.3 µM

Q: With `O=C(O)CCNC(=O)/C=C/c1ccc(O)c(O)c1` as the compound, how does the IC50 read?
A: 27.3 µM

Q: For `CC(C)[C@H](NC(=O)/C=C/c1ccc(O)c(O)c1)C(=O)O`, which IC50 is on record?
A: 38.3 µM

Q: For `O=C(/C=C/c1ccc(O)c(O)c1)Nc1ccc(O)c(NC(=O)C2CC2)c1`, which IC50 is on record?
A: 18.2 µM

Q: Which IC50 does the source give for `CC(C)C(=O)Nc1cc(NC(=O)/C=C/c2ccc(O)c(O)c2)ccc1O` here?
A: 19 µM

Q: Which IC50 does the source give for `O=C(/C=C/c1ccc(O)c(O)c1)NCCC[C@H](NC(=O)Cc1ccccc1)C(=O)O` here?
A: 30.2 µM

Q: For `O=C(/C=C/c1ccc(O)c(O)c1)NCCC[C@H](NC(=O)c1ccccc1)C(=O)O`, which IC50 is on record?
A: 34.3 µM

Q: For `CCC(CC)C(=O)Nc1cc(NC(=O)/C=C/c2ccc(O)c(O)c2)ccc1O`, which IC50 is on record?
A: 22.8 µM

Molecular target: T1, Neuraminidase
Test: Non-competitive inhibition of Influenza A virus (A/chicken/Sandong/Li/2008(H9N2)) neuraminidase N2 using 4-MU-NANA as substrate by Lineweaver-Burk plot analysis
Settings: not given

Q: With `CCC(CC)C(=O)Nc1cc(NC(=O)/C=C/c2ccc(O)c(O)c2)ccc1OCC(=O)O` as the compound, how does the Ki read?
A: 11.5 µM

Reference: ChEMBL document CHEMBL2390861, “Caffeic acid derivatives: a new type of influenza neuraminidase inhibitors” (Bioorg Med Chem Lett, 2013)
